According to patent US20250144067A1, “PERSONALIZED STARVATION THERAPY FOR CANCER” (Faeth Therapeutics, Inc., priority 2021, published 2025):
Structures can show the parent of a compound that is named as a salt. Where two headings read alike, the source gives them in different places.

Legend:
[1] = system: NCI-H292 lung cancer cells; assay: FDA drug screening, complete media vs cholesterol-free media with simvastatin (TABLE 2); assay type: cell-based, human
[2] = system: NCI-H292 lung cancer cells; assay: FDA drug screening, complete media vs cholesterol-free media without statin (TABLE 1); assay type: cell-based, human
[3] = NCI-H292 cells, cholesterol-free media with simvastatin 0.04 μM, cell growth value in FDA drug screen
[4] = NCI-H292 cells, complete media, cell growth value in FDA drug screen
[5] = complete media minus cholesterol-free media + simvastatin, >0 enhanced anti-cancer activity, about 0 neutral, <0 antagonist
[6] = Complete minus Cholesterol-free, >0 enhanced anti-cancer activity, about 0 neutral, <0 antagonist
[7] = NCI-H292 cells, cholesterol-free media without statin
[8] = complete media vs cholesterol-free media + simvastatin (0.04 μM), >0 enhanced anti-cancer activity, about 0 neutral, <0 antagonist
[9] = Complete minus Cholesterol-free, greater than 0 enhanced anti-cancer activity, about 0 neutral, below 0 antagonist
[10] = NCI-H292 cells, FDA drug library screen, cholesterol-free media without statin
[11] = NCI-H292 cells, FDA drug library screen, complete media
[12] = NCI-H292 cells, cholesterol-free media with simvastatin 0.04 μM, FDA drug library screen (TABLE 2)
[13] = NCI-H292 cells, complete media, FDA drug library screen (TABLE 2)
[14] = complete media minus cholesterol-free media + simvastatin (0.04 μM), >0 enhanced anti-cancer activity, about 0 neutral, <0 antagonist
[15] = NCI-H292 cells, FDA drug library screen, cholesterol-free media with simvastatin 0.04 μM
[16] = complete media minus cholesterol-free media + simvastatin, […]
[17] = Complete minus Cholesterol-free, […]
[18] = NCI-H292 cells, cholesterol-free media without statin, FDA drug library screen
[19] = NCI-H292 cells, complete media, FDA drug library screen
[20] = NCI-H292 cells, drug in cholesterol-free media with simvastatin 0.04 μM
[21] = NCI-H292 cells, drug in complete media
[22] = complete vs cholesterol-free media, >0 enhanced anti-cancer activity, about 0 neutral, <0 antagonist
[23] = complete media minus cholesterol-free media + simvastatin (0.04 μM), […]

For `CC(C)NCC(O)COc1ccc(CC(N)=O)cc1` (stereo not shown) [Atenolol], the “Cholesterol-free media + simvastatin (0.04 μM)” value [1, 3] was 0.9412, the “Complete Media” value [1, 4] was 1.006 and the Difference [1, 5] was 0.06. The Difference [2, 6] was −0.26 and the Cholesterol-free [2, 7] was 1.429.
For `O=C(O)c1cc(O)c(O)c(O)c1` [Gallic acid], the “Cholesterol-free media + simvastatin (0.04 μM)” value ([1]; NCI-H292 cells, FDA library drug in cholesterol-free media with simvastatin 0.04 μM) was 2.089, the “Complete Media” value ([1]; NCI-H292 cells, FDA library drug in complete media) was 1.613 and the Difference [1, 8] was −0.48. It also gave a Difference [2, 9] of −0.08, a Cholesterol-free [2, 10] of 1.301 and a Complete [2, 11] of 1.222.
Niraparib (tosylate) was tested, and the “Cholesterol-free media + simvastatin (0.04 μM)” value [1] was 1.448, the “Complete Media” value [1] was 1.091 and the Difference [1] was −0.36. It also gave a Cholesterol-free [2] of 1.671 and a Difference [2] of −0.63.
For Clebopride (malate), the “Cholesterol-free media + simvastatin (0.04 μM)” value [1, 12] was 0.7532, the “Complete Media” value [1, 13] was 0.7281 and the Difference [1, 14] was −0.03. The Difference [2, 6] was −0.29, the Cholesterol-free [2, 7] was 0.9703 and the Complete ([2]; NCI-H292 cells, complete media) was 0.6807.
For `COc1cc(NS(=O)(=O)c2ccc(N)cc2)nc(OC)n1` [Sulfadimethoxine], the “Cholesterol-free media + simvastatin (0.04 μM)” value [1, 15] was 0.819, the “Complete Media” value [1, 11] was 0.9685 and the Difference [1, 5] was 0.15. The Cholesterol-free [2, 7] was 1.234, the Complete ([2]; NCI-H292 cells, complete media) was 0.8763 and the Difference ([2]; complete vs cholesterol-free media, greater than 0 enhanced anti-cancer activity, about 0 neutral, below 0 antagonists) was −0.36.
For `CCCCCCCCCCCCCCCC[n+]1ccccc1.[Cl-]` [Cetylpyridinium (chloride)], the “Cholesterol-free media + simvastatin (0.04 μM)” value ([1]; NCI-H292 cells, cholesterol-free media with simvastatin 0.04 μM, […]) was 0.218, the “Complete Media” value ([1]; NCI-H292 cells, complete media, […]) was 0.2381 and the Difference [1, 16] was 0.02. For the same molecule, the Difference [2, 17] was −0.03, the Cholesterol-free [2, 18] was 0.09243 and the Complete [2, 19] was 0.05797.
In the case of `CC(C)(C)c1cc(NC(=O)Nc2ccc(-c3cn4c(n3)sc3cc(OCCN5CCOCC5)ccc34)cc2)no1` [Quizartinib], the “Cholesterol-free media + simvastatin (0.04 μM)” value [1, 20] is reported as 1.022, the “Complete Media” value [1, 21] is reported as 0.8076 and the Difference [1, 8] is reported as −0.21. For the same molecule, the Cholesterol-free [2, 18] was 0.663, the Complete [2, 19] was 0.7657 and the Difference [2, 22] was 0.10.
In the case of `CC(C)(C)NCC(O)COc1cccc2c1CCC(=O)N2` (stereo not shown) [Carteolol hydrochloride], the “Cholesterol-free media + simvastatin (0.04 μM)” value [1, 20] is reported as 1.125, the “Complete Media” value [1, 21] is reported as 0.8865 and the Difference [1, 8] is reported as −0.24. It also gave a Difference [2, 9] of −0.19, a Cholesterol-free [2, 10] of 1.114 and a Complete [2, 11] of 0.9284.
`CN1C(=O)OC(C)(C)C1=O` [Trimethadione] was tested, and the “Cholesterol-free media + simvastatin (0.04 μM)” value [1, 3] was 1.017, the “Complete Media” value [1, 4] was 1.08 and the Difference [1, 5] was 0.06. For the same molecule, the Difference [2, 6] was −0.23, the Cholesterol-free [2, 7] was 1.085 and the Complete ([2]; NCI-H292 cells, complete media) was 0.857.
For `CC(=O)O[C@H]1C[C@H](O[C@H]2[C@@H](O)C[C@H](O[C@H]3[C@@H](O)C[C@H](O[C@H]4CC[C@@]5(C)[C@H](CC[C@@H]6[C@@H]5C[C@@H](O)[C@]5(C)[C@@H](C7=CC(=O)OC7)CC[C@]65O)C4)O[C@@H]3C)O[C@@H]2C)O[C@H](C)[C@H]1O[C@@H]1O[C@H](CO)[C@@H](O)[C@H](O)[C@H]1O` [Lanatoside C], the “Cholesterol-free media + simvastatin (0.04 μM)” value [1, 12] was −0.002744, the “Complete Media” value [1, 13] was −0.008403 and the Difference [1, 23] was −0.01. It also gave a Difference [2, 17] of −0.02, a Cholesterol-free [2, 18] of 7.102E−18 and a Complete [2, 19] of −0.02112.
In the case of Oxeladin (citrate), the “Cholesterol-free media + simvastatin (0.04 μM)” value [1, 15] is reported as 0.7029, the “Complete Media” value [1, 11] is reported as 1.466 and the Difference [1, 16] is reported as 0.76. For the same molecule, the Difference [2, 17] was −0.55, the Cholesterol-free ([2]; NCI-H292 cells in cholesterol-free media without statin) was 1.475 and the Complete ([2]; NCI-H292 cells in complete media) was 0.921.
In the case of `C[C@H]1O[C@@H](O[C@H]2[C@@H](O)C[C@H](O[C@H]3[C@@H](O)C[C@H](O[C@H]4CC[C@@]5(C)[C@H](CC[C@@H]6[C@@H]5CC[C@]5(C)[C@@H](C7=CC(=O)OC7)CC[C@]65O)C4)O[C@@H]3C)O[C@@H]2C)C[C@H](O)[C@@H]1O` [Digitoxin], the “Cholesterol-free media + simvastatin (0.04 μM)” value [1, 12] is reported as 0.01053, the “Complete Media” value [1, 13] is reported as −0.02212 and the Difference [1, 23] is reported as −0.03. It also gave a Difference [2, 17] of 0.04, a Cholesterol-free [2, 18] of −0.01931 and a Complete [2, 19] of 0.0198.
In the case of `O=c1ccc2ccccc2o1` [Coumarin], the “Cholesterol-free media + simvastatin (0.04 μM)” value [1, 12] is reported as 0.8441, the “Complete Media” value [1, 13] is reported as 0.7948 and the Difference [1, 14] is reported as −0.05. The Cholesterol-free [2, 18] was 0.9742, the Complete [2, 19] was 1.716 and the Difference [2, 22] was 0.74.
For `NC[C@H]1O[C@H](O[C@H]2[C@H](O)[C@@H](O[C@H]3O[C@H](CO)[C@@H](O)[C@H](N)[C@H]3O)[C@H](N)C[C@@H]2N)[C@H](N)[C@@H](O)[C@@H]1O` [Bekanamycin], the “Cholesterol-free media + simvastatin (0.04 μM)” value [1, 20] was 1.456, the “Complete Media” value [1, 21] was 1.293 and the Difference [1, 8] was −0.16. It also gave a Cholesterol-free [2, 18] of 0.873, a Complete [2, 19] of 1.446 and a Difference [2, 22] of 0.57.
